Measured values as given in patent US6914121B2, “PEG-LHRH analog conjugates” (Applied Research Systems Ars Holding N.V., priority 1998, dated 2005).
≈ marks a conversion by molar mass, not a printed value. Square brackets hold non-standard residues; d marks the D form. Peptide text beside a SMILES is read from it. * marks the point of attachment. Phe(4-Cl) = N[CH](Cc1ccc(Cl)cc1)C(=O)O; 2Nal = N[CH](Cc1ccc2ccccc2c1)C(=O)O; Lys(iPr) = CC(C)NCCCC[CH](N)C(=O)O; 3Pal = N[CH](Cc1cccnc1)C(=O)O; Nicotinoyl = O=C(c1cccnc1)*

Legend:
[1] = Solubility of antide in isotonic media; format: physicochemical
[2] = previous formulations, e.g. antide 1 mg/ml in 5% glucose; cited from earlier work

CC(=O)NC(Cc1ccc2ccccc2c1)C(=O)NC(Cc1ccc(Cl)cc1)C(=O)NC(Cc1cccnc1)C(=O)NC(CO)C(=O)NC(CCCCNC(=O)c1cccnc1)C(=O)NC(CCCCNC(=O)c1cccnc1)C(=O)NC(CC(C)C)C(=O)NC(CCCCNC(C)C)C(=O)N1CCCC1C(=O)NC(C)C(N)=O (stereo not drawn) [antide] (Ac-[2Nal][Phe(4-Cl)][3Pal]SK(Nicotinoyl)K(Nicotinoyl)L[Lys(iPr)]PA-NH2; configuration not given here)
solubility ([1]; 0.9% NaCl solution): 25 µg/mL (≈ 15.7 µM)
solubility ([1]; phosphate buffered saline): 16 µg/mL (≈ 10.1 µM)
bioavailability [2]: poor bioavailability
